#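 The compound was tested at five concentrations on cells cultured in 96-well plates, with a 48-hour exposure period. GI50 marks 50% less growth.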 Active and inactive are the calls of the source. Rule as the data show it: active = GI50 up to about 1.1 µM and inactive = higher.
# How the values were obtained:
# Test in all cases: DTP human tumour cell line panel, 48 h
# 786-0 = tested on: 786-0
# A549 = tested on: A549
# ACHN = tested on: ACHN
# BT-549 = tested on: BT-549
# CAKI-1 = tested on: CAKI-1
# CCRF-CEM = tested on: CCRF-CEM
# COLO 205 = tested on: COLO 205
# DU-145 = tested on: DU-145
# EKVX = tested on: EKVX
# HCC 2998 = tested on: HCC 2998
# HCT-116 = tested on: HCT-116
# HCT-15 = tested on: HCT-15
# HL-60 = tested on: HL-60
# HOP-62 = tested on: HOP-62
# HT-29 = tested on: HT-29
# Hs-578T = tested on: Hs-578T
# IGROV-1 = tested on: IGROV-1
# K562 = tested on: K562
# KM12 = tested on: KM12
# M14 = tested on: M14
# MCF7 = tested on: MCF7
# MDA-MB-231 = tested on: MDA-MB-231
# MDA-MB-435 = tested on: MDA-MB-435
# MDA-N = tested on: MDA-N
# MOLT-4 = tested on: MOLT-4
# Malme-3M = tested on: Malme-3M
# NCI-H226 = tested on: NCI-H226
# NCI-H23 = tested on: NCI-H23
# NCI-H460 = tested on: NCI-H460
# NCI-H522 = tested on: NCI-H522
# NCI/ADR-RES = tested on: NCI/ADR-RES
# OVCAR-3 = tested on: OVCAR-3
# OVCAR-4 = tested on: OVCAR-4
# OVCAR-5 = tested on: OVCAR-5
# OVCAR-8 = tested on: OVCAR-8
# PC-3 = tested on: PC-3
# RPMI-8226 = tested on: RPMI-8226
# RXF 393 = tested on: RXF 393
# SF-268 = tested on: SF-268
# SF-295 = tested on: SF-295
# SK-MEL-28 = tested on: SK-MEL-28
# SK-MEL-2 = tested on: SK-MEL-2
# SK-MEL-5 = tested on: SK-MEL-5
# SK-OV-3 = tested on: SK-OV-3
# SN12C = tested on: SN12C
# SNB-19 = tested on: SNB-19
# SNB-75 = tested on: SNB-75
# SW-620 = tested on: SW-620
# T47D = tested on: T47D
# TK-10 = tested on: TK-10
# U-251 = tested on: U-251
# UACC-257 = tested on: UACC-257
# UACC-62 = tested on: UACC-62
# UO-31 = tested on: UO-31
# A498 = tested on: A498
# HOP-92 = tested on: HOP-92
# SF-539 = tested on: SF-539
# SR = tested on: SR
smiles,measurement,setting,value
N=c1sc(N2CCOCC2)nn1CC(=O)c1ccccc1,GI50,786-0,> 100 µM (inactive)
same,GI50,A549,> 100 µM (inactive)
same,GI50,ACHN,> 100 µM (inactive)
same,GI50,BT-549,> 100 µM (inactive)
same,GI50,CAKI-1,> 100 µM (inactive)
same,GI50,CCRF-CEM,> 100 µM (inactive)
same,GI50,COLO 205,> 100 µM (inactive)
same,GI50,DU-145,> 100 µM (inactive)
same,GI50,EKVX,> 100 µM (inactive)
same,GI50,HCC 2998,> 100 µM (inactive)
same,GI50,HCT-116,> 100 µM (inactive)
same,GI50,HCT-15,> 100 µM
same,GI50,HL-60,> 100 µM (inactive)
same,GI50,HOP-62,> 100 µM (inactive)
same,GI50,HT-29,> 100 µM (inactive)
same,GI50,Hs-578T,> 100 µM (inactive)
same,GI50,IGROV-1,> 100 µM (inactive)
same,GI50,K562,> 100 µM (inactive)
same,GI50,KM12,> 100 µM (inactive)
same,GI50,M14,> 100 µM (inactive)
same,GI50,MCF7,53.5 µM (inactive)
same,GI50,MDA-MB-231,> 100 µM (inactive)
same,GI50,MDA-MB-435,> 100 µM (inactive)
same,GI50,MDA-N,> 100 µM (inactive)
same,GI50,MOLT-4,> 100 µM (inactive)
same,GI50,Malme-3M,> 100 µM (inactive)
same,GI50,NCI-H226,> 100 µM (inactive)
same,GI50,NCI-H23,> 100 µM (inactive)
same,GI50,NCI-H460,> 100 µM (inactive)
same,GI50,NCI-H522,> 100 µM (inactive)
same,GI50,NCI/ADR-RES,> 100 µM (inactive)
same,GI50,OVCAR-3,66.5 µM (inactive)
same,GI50,OVCAR-4,> 100 µM (inactive)
same,GI50,OVCAR-5,> 100 µM (inactive)
same,GI50,OVCAR-8,> 100 µM (inactive)
same,GI50,PC-3,96.8 µM (inactive)
same,GI50,RPMI-8226,> 100 µM (inactive)
same,GI50,RXF 393,> 100 µM (inactive)
same,GI50,SF-268,> 100 µM (inactive)
same,GI50,SF-295,> 100 µM (inactive)
same,GI50,SK-MEL-28,> 100 µM (inactive)
same,GI50,SK-MEL-2,> 100 µM (inactive)
same,GI50,SK-MEL-5,> 100 µM (inactive)
same,GI50,SK-OV-3,> 100 µM (inactive)
same,GI50,SN12C,> 100 µM (inactive)
same,GI50,SNB-19,> 100 µM (inactive)
same,GI50,SNB-75,> 100 µM (inactive)
same,GI50,SW-620,> 100 µM (inactive)
same,GI50,T47D,76.4 µM (inactive)
same,GI50,TK-10,> 100 µM (inactive)
same,GI50,U-251,> 100 µM (inactive)
same,GI50,UACC-257,> 100 µM (inactive)
same,GI50,UACC-62,> 100 µM (inactive)
same,GI50,UO-31,> 100 µM (inactive)
CC(=O)Oc1ccc2c(c1)CC[C@@H]1C2CC[C@]2(C)C(=O)NC(=O)CC12 (stereo partly drawn),GI50,786-0,> 100 µM (inactive)
same,GI50,A498,> 100 µM (inactive)
same,GI50,A549,> 100 µM (inactive)
same,GI50,ACHN,> 100 µM (inactive)
same,GI50,BT-549,> 100 µM (inactive)
same,GI50,CAKI-1,> 100 µM (inactive)
same,GI50,CCRF-CEM,> 100 µM (inactive)
same,GI50,COLO 205,> 100 µM (inactive)
same,GI50,DU-145,> 100 µM (inactive)
same,GI50,EKVX,23.9 µM (inactive)
same,GI50,HCC 2998,> 100 µM (inactive)
same,GI50,HCT-116,> 100 µM (inactive)
same,GI50,HL-60,> 100 µM (inactive)
same,GI50,HOP-62,> 100 µM (inactive)
same,GI50,HOP-92,> 100 µM (inactive)
same,GI50,HT-29,> 100 µM (inactive)
same,GI50,Hs-578T,> 100 µM (inactive)
same,GI50,IGROV-1,> 100 µM (inactive)
same,GI50,K562,> 100 µM (inactive)
same,GI50,KM12,> 100 µM (inactive)
same,GI50,M14,> 100 µM (inactive)
same,GI50,MCF7,> 100 µM (inactive)
same,GI50,MDA-MB-231,> 100 µM (inactive)
same,GI50,MDA-MB-435,> 100 µM (inactive)
same,GI50,MDA-N,> 100 µM (inactive)
same,GI50,MOLT-4,> 100 µM (inactive)
same,GI50,Malme-3M,> 100 µM (inactive)
same,GI50,NCI-H226,> 100 µM (inactive)
same,GI50,NCI-H23,> 100 µM (inactive)
same,GI50,NCI-H460,> 100 µM (inactive)
same,GI50,NCI-H522,> 100 µM (inactive)
same,GI50,OVCAR-3,> 100 µM (inactive)
same,GI50,OVCAR-4,> 100 µM (inactive)
same,GI50,OVCAR-5,> 100 µM (inactive)
same,GI50,OVCAR-8,> 100 µM (inactive)
same,GI50,PC-3,> 100 µM (inactive)
same,GI50,RXF 393,> 100 µM (inactive)
same,GI50,SF-268,> 100 µM (inactive)
same,GI50,SF-295,> 100 µM (inactive)
same,GI50,SF-539,> 100 µM (inactive)
same,GI50,SK-MEL-28,> 100 µM (inactive)
same,GI50,SK-MEL-5,> 100 µM (inactive)
same,GI50,SK-OV-3,> 100 µM (inactive)
same,GI50,SN12C,> 100 µM (inactive)
same,GI50,SNB-19,> 100 µM (inactive)
same,GI50,SNB-75,> 100 µM (inactive)
same,GI50,SR,91.4 µM (inactive)
same,GI50,SW-620,> 100 µM (inactive)
same,GI50,T47D,> 100 µM (inactive)
same,GI50,TK-10,> 100 µM (inactive)
same,GI50,U-251,> 100 µM (inactive)
same,GI50,UACC-257,> 100 µM (inactive)
same,GI50,UACC-62,> 100 µM (inactive)
same,GI50,UO-31,> 100 µM (inactive)

# From ChEMBL document CHEMBL1201862, “PubChem BioAssay data set” (2004)
